{"source": "patent US12612389B2", "about": "“Benzofuran-based N-acylhydrazone derivative and pharmaceutical composition comprising same” (KOREA RESEARCH INSTITUTE OF BIOSCIENCE AND BIOTECHNOLOGY, priority 2019, dated 2026)", "key": {"[1]": {"set-up": "species or system ICR mice", "conditions": "mouse, in vivo", "experimental": "The experimental apparatus was constructed similarly to that used in the paper described by Reyes-Mendez et al. (2018), and was composed of a black acrylic fence (floor area of […] and wall height of 40 cm). The floor surface was divided into 25 squares each having a size of 10×10 cm. For this experiment, mice were placed on the center of the floor and spontaneous activities thereof were recorded for 7 minutes from the top. After the experiment, the experimental apparatus was thoroughly washed with 30% ethanol. Three observers, unaware whether the drug was treated or not, analyzed the first 5 minutes of recorded video to count the number of squares the mouse passed, and add up the time during which the mouse stayed without moving, and the number of times the mouse was groomed or shaken, and the like. Based on the contents analyzed above, the time during which the mouse stayed in the central zone, speed, and total moving distance were calculated. A case where the two-tailed probability value was less than 0.05 (p<0.05) was considered statistically significant.\nNo statistically significant experimental groups were found as results of open-field experiments in mice."}, "A498": {"system": "A498", "test": "Anti-proliferative activity in other cancer cell lines (MTT)", "type": "cell-based", "conditions": "Homo sapiens, 96 h, Kidney, 4 days", "experimental": "(§1) HeLa cells (American Type Culture Collection: ATCC, USA), a human cervical cancer cell line, were seeded in a 96-well plate at 3×10^3 cells/well, and the cells were then treated with compounds of Examples or Comparative Example according to the present invention and grown for 2 days. Then, MTT (3-(4,5-dimethylthiazol-2-yl)-2,5-diphenyltetrazolium bromide) reagent was added at 10 μL/well. After 2 hours, absorbance was measured at “OD 450” and statistical values were obtained using Prism™6 program. The data shown in Table below are mean values of results obtained by repeating the analysis twice.\n(§2) Specifically, various cancer cell lines were cultured in a microtiter plate (1-3×10^3 cells/well), treated with the compound of Example 4 according to the present invention, and cultured for 4 days. Cytotoxicity was tested by MTT assay in the same manner as in Experimental Example 1-1, and IC50 was obtained by a log-dose response curve. The data shown in Table below are mean values of results obtained by repeating the analysis three times."}, "DU145": {"system": "DU145", "test": "Anti-proliferative activity in other cancer cell lines (MTT)", "type": "cell-based", "conditions": "Homo sapiens, DU-145, 96 h, Prostate, 4 days", "experimental": "as §1, §2"}, "[2]": {"test": "Solubility of the compound in the toxicity-test solvent", "type": "physicochemical", "conditions": "N′,N′-dimethylacetamide/Kolliphor/2-hydroxypropyl-β-cyclodextrin (10% in distilled water)=40:10:50; thicker solutions precipitated", "experimental": "(§3) 100 mg/kg of the compound of Example 4 was dissolved in a solvent (N′,N′-dimethylacetamide/Kolliphor/2-hydroxypropyl-β-cyclodextrin (10% concentration of distilled water solution)=40:10:50). When the concentration became thicker than that, the reaction solution immediately precipitated. The solution in which the compound of Example 4 was dissolved from 12.5 mg/kg to 100 mg/kg was injected into the peritoneal cavity of mice 10 times […] in a volume of 100 μL (see FIG. 8A). All animals survived to the final day, and no particular problems were seen by visual observation (see Table 13 and FIG. 8A)."}, "MEF (mouse)": {"system": "MEF (mouse)", "test": "Cytotoxicity in normal cells (MTT)", "type": "cell-based", "conditions": "96 h, Normal cell, 4 days"}, "[3]": {"test": "Mouse toxicity test (repeated intraperitoneal injection)", "type": "in vivo, ICR mice", "conditions": "for Survival rate (%): n = 3, i.p., 10 injections", "experimental": "All animal experiments and procedures were performed in accordance with ethical standards under the approval of the Institutional Animal Care and Use Committee (IACUC) of the Korea Research Institute of Bioscience and Biotechnology (KRIBB). ICR mice were supplied by Daehan Biolink Co., Ltd (Korea). All mice were housed in sterile animal isolation facilities. All in vivo experiments were performed using 6-8 week old mice.\nAcute toxicity test of the compound of Example 4 was performed at the Laboratory Animal Resource Center of the Korea Research Institute of Bioscience and Biotechnology. ICR mice (6-8 weeks old) were acclimatized for up to 10 days before the experiment, and then 3 mice were injected with the drugs. The Example compound was mixed with a solvent and injected intraperitoneally, and after drug treatment, clinical symptoms were observed twice within 24 hours, and additional drug treatment was performed up to 10 times as scheduled. The mice were weighed 5 times as scheduled.\nas §3"}, "MCF7": {"system": "MCF7", "test": "Anti-proliferative activity test in cancer cells exhibiting multidrug resistance (MTT), parent line", "type": "cell-based", "conditions": "Homo sapiens, 96 h, 4 days", "experimental": "(§4) HeLa cells (American Type Culture Collection: ATCC, USA), a human cervical cancer cell line, were seeded in a 96-well plate at 3×10^3 cells/well, and the cells were then treated with compounds of Examples or Comparative Example according to the present invention and grown for 2 days. Then, MTT (3-(4,5-dimethylthiazol-2-yl)-2,5-diphenyltetrazolium bromide) reagent was added at 10 μL/well. […] The data shown in Table below are mean values of results obtained by repeating the analysis twice. Specifically, K562 and MCF7 (Bio Evaluation Center, Korea Research Institute of Bioscience and Biotechnology, Korea) and multidrug-resistant cell lines of each of these cell lines, i.e., K562/ADR and MCF7/ADR (Bio Evaluation Center, Korea Research Institute of Bioscience and Biotechnology, Korea), were cultured on microtiter plates (1-3×10^3 cells/well). […] The data shown in Table below are mean values of results obtained by repeating the analysis three times."}, "K562": {"system": "K562", "test": "Anti-proliferative activity test in cancer cells exhibiting multidrug resistance (MTT), parent line", "type": "cell-based", "conditions": "Homo sapiens, 96 h, 4 days", "experimental": "as §4"}, "HDF (human)": {"system": "HDF (human)", "test": "Cytotoxicity in normal cells (MTT)", "type": "cell-based", "conditions": "96 h, Normal cell, 4 days"}, "HeLa CCL2 cell line": {"system": "HeLa CCL2 cell line", "test": "Effect test on cell cycle progression (propidium iodine, FACS)", "type": "cell-based, human"}, "MCF7/ADR": {"system": "MCF7/ADR", "test": "Anti-proliferative activity test in cancer cells exhibiting multidrug resistance (MTT)", "type": "cell-based", "experimental": "as §4"}, "K562/ADR": {"system": "K562/ADR", "test": "Anti-proliferative activity test in cancer cells exhibiting multidrug resistance (MTT)", "type": "cell-based", "experimental": "as §4"}, "HeLa CCL2 cells": {"system": "HeLa CCL2 cells", "test": "In vitro invasion assay (trans well)", "type": "cell-based, human", "conditions": "10 nM, 50 nM, 100 nM, 250 nM, 16 hours, FIGS. 7A and 7B", "experimental": "In addition, in order to confirm the efficacy of inhibiting cell migration again, an invasion assay was performed. A trans well chamber for a 24-well plate was prepared, and HeLa CCL2 cells at a density of 5×10^4 were put into the upper chamber, treated with 10 nM, 50 nM, 100 nM, and 250 nM of the compound of Example 4, and cultured. Then, after 16 hours, the migrated cells were identified and the number thereof was measured through cell staining."}}}
{"compound": "CCOCCn1c(Cl)c(/C=N/NC(=O)c2cc3cc(C)ccc3o2)c2ccccc21", "note": "[Example 4, (E)-N′-[(2-chloro-1-(2-ethoxyethyl)-1H-indol-3-yl]methylene}-5-methylbenzofuran-2-carbohydrazide]", "values": [{"measurement": "effect on behavior of mice in open field (time in center zone, speed, total moving distance)", "setting": "[1]", "value": "did not affect the behavior of mice in all groups"}, {"measurement": "IC50", "setting": "A498", "value": "0.17 ± 0.008", "unit": "µM"}, {"measurement": "IC50", "setting": "DU145", "value": "0.49 ± 0.09", "unit": "µM"}, {"measurement": "highest concentration dissolved without precipitation", "setting": "[2]", "value": 100, "unit": "mg/kg"}, {"measurement": "IC50", "setting": "MEF (mouse)", "value": "4.01 ± 4.58", "unit": "µM"}, {"measurement": "Survival rate (%)", "setting": "[3]; 12.5 mg/kg", "value": 100, "unit": "%"}, {"measurement": "Survival rate (%)", "setting": "[3]; 25 mg/kg", "value": 100, "unit": "%"}, {"measurement": "Survival rate (%)", "setting": "[3]; 50 mg/kg", "value": 100, "unit": "%"}, {"measurement": "Survival rate (%)", "setting": "[3]; 100 mg/kg", "value": 100, "unit": "%"}, {"measurement": "toxicity on dissection (size and morphology of each organ)", "setting": "[3]; intraperitoneally 10 times at 100 mg/kg", "value": "did not induce serious toxicity"}, {"measurement": "IC50", "setting": "MCF7", "value": 0.822, "unit": "µM"}, {"measurement": "IC50", "setting": "K562", "value": 0.35, "unit": "µM"}, {"measurement": "IC50", "setting": "HDF (human)", "value": "27 ± 7.89", "unit": "µM"}, {"measurement": "number of cells in G2/M phase as a percentage", "setting": "HeLa CCL2 cell line; 0.2 μM, FACS", "value": 82.36, "unit": "%"}, {"measurement": "cells stopped in the mitotic phase", "setting": "HeLa CCL2 cell line; 16 hours post treatment", "value": "≥ 80", "unit": "%"}, {"measurement": "Effect (μM): concentration at which cells were collected in the mitotic phase", "setting": "HeLa CCL2 cell line; FACS", "value": 0.2, "unit": "µM"}, {"measurement": "IC50", "setting": "HeLa CCL2 cell line; Homo sapiens, as stated in text on Table 5", "value": 0.2, "unit": "µM"}, {"measurement": "IC50", "setting": "MCF7/ADR; Homo sapiens, NCI/ADR-RES, 96 h, MCF7/ADR (multidrug-resistant), 4 days, MTT", "value": 0.332, "unit": "µM"}, {"measurement": "Resistance Factor", "setting": "MCF7/ADR; ratio IC50 MCF7/ADR to IC50 MCF7", "value": 0.40}, {"measurement": "IC50", "setting": "K562/ADR; Homo sapiens, 96 h, K562/ADR (multidrug-resistant), 4 days, MTT", "value": 0.201, "unit": "µM"}, {"measurement": "Resistance Factor", "setting": "K562/ADR; ratio IC50 K562/ADR to IC50 K562", "value": 0.57}, {"measurement": "cancer metastasis inhibitory effect (migrated cells)", "setting": "HeLa CCL2 cells", "value": "excellent cancer metastasis inhibitory effect"}]}
